Data published in US20260285850A1, “SUBSTITUTED OXAZOLIDINONES AND IMIDAZOLINONES AS HERBICIDES” (FMC CORPORATION, priority 2023, published 2026).

Assays:
Type in all cases: in vivo
[1] = system: barnyardgrass (Echinochloa crus-galli); assay: Test A preemergence soil spray, visual injury rating 0-100; details: 10 days
Outline: (§1)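 Preemergence directed soil spray or postemergence spray (2-10 cm, 1-2 leaf); loam/sand mix; compound in non-phytotoxic solvent + surfactant. Greenhouse, 10 d. Visual injury vs untreated, 0 = none, 100 = complete control.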

[2] = system: blackgrass (Alopecurus myosuroides); assay: as above; details: 10 days
Outline: as §1

corn (Zea mays) [3] = assay: as above; details: 10 days
Outline: as §1

[4] = system: green foxtail (Setaria viridis); assay: as above; details: 10 days
Outline: as §1

kochia (Bassia scoparia) [5] = assay: as above; details: 10 days
Outline: as §1

[6] = system: oat, wild (wild oat, Avena fatua); assay: as above; details: 10 days
Outline: as §1

[7] = system: palmer (palmer amaranth, palmer pigweed, Amaranthus palmeri); assay: as above; details: 10 days
Outline: as §1

[8] = system: ragweed (common ragweed, Ambrosia artemisiifolia); assay: as above; details: 10 days
Outline: as §1

[9] = system: ryegrass, Italian (italian ryegrass, Lolium multiflorum); assay: as above; details: 10 days
Outline: as §1

soybean (Glycine max) [10] = assay: as above; details: 10 days
Outline: as §1

[11] = system: wheat (Triticum aestivum); assay: as above; details: 10 days
Outline: as §1

[12] = system: barnyardgrass (Echinochloa crus-galli); assay: Test A postemergence application, visual injury rating 0-100
Outline: as §1

[13] = system: blackgrass (Alopecurus myosuroides); assay: as above
Outline: as §1

corn (Zea mays) [14] = assay: as above
Outline: as §1

[15] = system: galium (catchweed bedstraw, Galium aparine); assay: as above
Outline: as §1

[16] = system: green foxtail (Setaria viridis); assay: as above
Outline: as §1

kochia (Bassia scoparia) [17] = assay: as above
Outline: as §1

[18] = system: oat, wild (wild oat, Avena fatua); assay: as above
Outline: as §1

[19] = system: palmer (palmer amaranth, palmer pigweed, Amaranthus palmeri); assay: as above
Outline: as §1

[20] = system: ragweed (common ragweed, Ambrosia artemisiifolia); assay: as above
Outline: as §1

[21] = system: ryegrass, Italian (italian ryegrass, Lolium multiflorum); assay: as above
Outline: as §1

soybean (Glycine max) [22] = assay: as above
Outline: as §1

[23] = system: wheat (Triticum aestivum); assay: as above
Outline: as §1

[24] = system: barnyardgrass (Echinochloa crusgalli); assay: Test B flooded paddy test, visual plant response rating 0-100; details: 250 g ai/ha, Flood, applied to paddy water, evaluated after 13 days
Outline: (§2)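 2-leaf plants; flood 3 cm over soil; compound dosed into paddy water; depth kept constant; greenhouse 13 d; visual scoring vs controls. Dash = no result.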

[25] = system: ducksalad (Heteranthera limosa); assay: as above; details: 250 g ai/ha, Flood, applied to paddy water, evaluated after 13 days
Outline: as §2

rice (Oryza sativa) = assay: as above; details: 250 g ai/ha, Flood, applied to paddy water, evaluated after 13 days
Outline: as §2

[26] = system: sedge, umbrella (small-flower umbrella sedge, Cyperus difformis); assay: as above; details: 250 g ai/ha, Flood, applied to paddy water, evaluated after 13 days
Outline: as §2

[27] = 62 g ai/ha, 0 = no effect, 100 = complete control
[28] = 62 g ai/ha, postemergence, 10 days, 0 = no effect, 100 = complete control
[29] = Postemergence, 16 g ai/ha, greenhouse 10 days, 0 no effect, 100 complete control

**Q.** With C=CC1(C(=O)NC2COC(C(=O)OC)C2)CN(c2cc(F)cc(F)c2)C(=O)O1 (centres unmarked) [Compound 170] as the compound, how does the “Barnyardgrass plant response rating” value ([1]; 16 g ai/ha, 0 to 100 scale) read?
**A.** Its value is 0.

**Q.** And the “Barnyardgrass plant response rating (0-100)” value [1, 27]?
**A.** Its value is 0.

**Q.** And the “Blackgrass plant response rating” value ([2]; 16 g ai/ha, 0 to 100 scale)?
**A.** Its value is 0.

**Q.** What about the “Blackgrass plant response rating (0-100)” value [2, 27] of the same compound?
**A.** Its value is 0.

**Q.** What about the “Corn plant response rating” value (corn (Zea mays) [3]; 16 g ai/ha, 0 to 100 scale) of the same compound?
**A.** The value was 0.

**Q.** What about the “Corn plant response rating (0-100)” value (corn (Zea mays) [3]; [27]) of the same compound?
**A.** The value was 0.

**Q.** And the “Foxtail, Green plant response rating” value ([4]; 16 g ai/ha, 0 to 100 scale)?
**A.** Its value is 0.

**Q.** And the “Foxtail, Green plant response rating (0-100)” value [4, 27]?
**A.** Its value is 0.

**Q.** And the “Kochia plant response rating” value (kochia (Bassia scoparia) [5]; 16 g ai/ha, 0 to 100 scale)?
**A.** The value was 0.

**Q.** And the “Kochia plant response rating (0-100)” value (kochia (Bassia scoparia) [5]; [27])?
**A.** Its value is 0.

**Q.** And the “Oat, Wild plant response rating” value ([6]; 16 g ai/ha, 0 to 100 scale)?
**A.** Its value is 0.

**Q.** And the “Oat, Wild plant response rating (0-100)” value [6, 27]?
**A.** The value was 0.

**Q.** What about the “Pigweed, Palmer plant response rating” value ([7]; 16 g ai/ha, 0 to 100 scale) of the same compound?
**A.** The value was 0.

**Q.** And the “Pigweed, Palmer plant response rating (0-100)” value [7, 27]?
**A.** The value was 0.

**Q.** And the “Ragweed plant response rating” value ([8]; 16 g ai/ha, 0 to 100 scale)?
**A.** The value was 0.

**Q.** What about the “Ragweed plant response rating (0-100)” value [8, 27] of the same compound?
**A.** Its value is 0.

**Q.** What about the “Ryegrass, Italian plant response rating” value ([9]; 16 g ai/ha, 0 to 100 scale) of the same compound?
**A.** Its value is 10.

**Q.** And the “Ryegrass, Italian plant response rating (0-100)” value [9, 27]?
**A.** Its value is 20.

**Q.** And the “Soybean plant response rating” value (soybean (Glycine max) [10]; 16 g ai/ha, 0 to 100 scale)?
**A.** Its value is 0.

**Q.** What about the “Soybean plant response rating (0-100)” value (soybean (Glycine max) [10]; [27]) of the same compound?
**A.** Its value is 0.

**Q.** And the “Wheat plant response rating” value ([11]; 16 g ai/ha, 0 to 100 scale)?
**A.** The value was 0.

**Q.** What about the “Wheat plant response rating (0-100)” value [11, 27] of the same compound?
**A.** The value was 0.

**Q.** What about the “Barnyardgrass plant response rating (0-100)” value [12, 28] of the same compound?
**A.** The value was 30.

**Q.** And the “Barnyardgrass plant response rating (0 to 100 scale)” value [12, 29]?
**A.** Its value is 0.

**Q.** And the “Blackgrass plant response rating (0-100)” value [13, 28]?
**A.** Its value is 0.

**Q.** And the “Blackgrass plant response rating (0 to 100 scale)” value [13, 29]?
**A.** The value was 0.

**Q.** And the “Corn plant response rating (0-100)” value (corn (Zea mays) [14]; [28])?
**A.** The value was 0.

**Q.** And the “Corn plant response rating (0 to 100 scale)” value (corn (Zea mays) [14]; [29])?
**A.** Its value is 0.

**Q.** And the “Galium plant response rating (0-100)” value [15, 28]?
**A.** Its value is 40.

**Q.** What about the “Galium plant response rating (0 to 100 scale)” value [15, 29] of the same compound?
**A.** The value was 0.

**Q.** What about the “Foxtail, Green plant response rating (0-100)” value [16, 28] of the same compound?
**A.** The value was 0.

**Q.** What about the “Foxtail, Green plant response rating (0 to 100 scale)” value [16, 29] of the same compound?
**A.** The value was 0.

**Q.** And the “Kochia plant response rating (0-100)” value (kochia (Bassia scoparia) [17]; [28])?
**A.** The value was 0.

**Q.** And the “Kochia plant response rating (0 to 100 scale)” value (kochia (Bassia scoparia) [17]; [29])?
**A.** Its value is 0.

**Q.** And the “Oat, Wild plant response rating (0-100)” value [18, 28]?
**A.** Its value is 0.

**Q.** What about the “Oat, Wild plant response rating (0 to 100 scale)” value [18, 29] of the same compound?
**A.** The value was 0.

**Q.** And the “Pigweed, Palmer plant response rating (0-100)” value [19, 28]?
**A.** The value was 0.

**Q.** What about the “Pigweed, Palmer plant response rating (0 to 100 scale)” value [19, 29] of the same compound?
**A.** Its value is 0.

**Q.** And the “Ragweed plant response rating (0-100)” value [20, 28]?
**A.** Its value is 0.

**Q.** And the “Ragweed plant response rating (0 to 100 scale)” value [20, 29]?
**A.** Its value is 0.

**Q.** What about the “Ryegrass, Italian plant response rating (0-100)” value [21, 28] of the same compound?
**A.** Its value is 0.

**Q.** What about the “Ryegrass, Italian plant response rating (0 to 100 scale)” value [21, 29] of the same compound?
**A.** The value was 0.

**Q.** And the “Soybean plant response rating (0-100)” value (soybean (Glycine max) [22]; [28])?
**A.** Its value is 30.

**Q.** What about the “Soybean plant response rating (0 to 100 scale)” value (soybean (Glycine max) [22]; [29]) of the same compound?
**A.** The value was 0.

**Q.** And the “Wheat plant response rating (0-100)” value [23, 28]?
**A.** Its value is 0.

**Q.** And the “Wheat plant response rating (0 to 100 scale)” value [23, 29]?
**A.** Its value is 0.

**Q.** What about the “Plant response rating, Barnyardgrass (0 to 100 scale, 0 is no effect and 100 is complete control)” value [24] of the same compound?
**A.** Its value is 0.

**Q.** What about the “Plant response rating, Ducksalad (0 to 100 scale, 0 is no effect and 100 is complete control)” value [25] of the same compound?
**A.** The value was 0.

**Q.** What about the “Plant response rating, Rice (0 to 100 scale, 0 is no effect and 100 is complete control)” value (rice (Oryza sativa)) of the same compound?
**A.** Its value is 0.

**Q.** And the “Plant response rating, Sedge, Umbrella (0 to 100 scale, 0 is no effect and 100 is complete control)” value [26]?
**A.** Its value is 0.
